Assay results reported in patent publication US8440595B2, “Fungicides” (priority 2007, dated 2013).

Columns and labels:
Septoria nodorum = assay: leaf disk assay, Septoria nodorum (wheat glume blotch), preventive; type: in vivo; details: for Efficacy (%): wheat leaf segments, four days after inoculation

| SMILES | Efficacy (%) (Septoria nodorum; Concentration 60 ppm) | Efficacy (%) (Septoria nodorum; Concentration 200 ppm) | fungicidal activity against Septoria nodorum compared with the compound from the state of the art (Septoria nodorum; both application rates (200 and 60 ppm)) | melting point [°C] |
| --- | --- | --- | --- | --- |
| CC#CC(C)(C)NC(=O)C(Oc1cc(Br)c2ncc(I)cc2c1)SC (stereo not drawn) [2(5), 2-(8-bromo-3-iodo-quinolinyl-6-oxy)-2-methylthio-N-(2-methylpent-3-yn-2-yl) acetamide] | 80 | 100 | substantially better fungicidal activity | 161 to 162 |
| CC#CC(C)(C)NC(=O)C(Oc1cc(Br)c2ncc(Br)cc2c1)SC (stereo not drawn) [2 (Table 23), reference compound] | 0 | 0 | – | – |
